How the values were obtained:
MCF-7 cells = assay: EMT assay by phase contrast microscopy in MCF-IM model; format: cell-based, human; settings: MCF-IM model; for EMT (morphology): bisindolylmaleimide 1 μM, 1 hr pre-treatment before PMA for 60 hrs
Experimental: EMT assays were performed in 24-well plates (Costar, Corning Inc., Corning, N.Y., USA). For this assay, usually MCF-7 cells were seeded at 4×10^4/well/500 μL media one day before the experiment unless otherwise specified. Cells were stimulated with various EMT stimuli prepared in warm media the following day and monitored for EMT changes under the microscope specified below. The percentage of EMT was generally calculated based on phenotype counting 100 cells per field under the microscope. All the potential EMT stimuli used herein are described in Table 6 and they were prepared and stored as per supplier specification.
Phase contrast microscopy was utilized for EMT and wound healing assays under 10× or 20× magnification of Olympus Fluorescence 1X71 microscope. Images were captured and analyzed as described above except that wound healing assay pictures were also analyzed by Image J software (Free software in Public domain developed by NIH).
The adherent human mammary adenocarcinoma MCF-7 and MDA-MB-231 cells were cultured in low glucose DMEM (Gibco) and both supplemented with 10% FCS, 2 mM L-glutamine and 0.1% PSN antibiotics. […] For Bisindolylmaleimide-I (Calbiochem) or PKC-θ peptide inhibitor (Calbiochem) studies, cells were pre-treated with 1 μM or 30 μM of inhibitor respectively for 1 h prior to stimulation in MCF-7 cells. In case of MDA-MB-231, cells were treated with 4 μM or 30 μM Bisindolylmaleimide-I or PKC-θ peptide inhibitor respectively.
phase contrast microscopy was performed where cells were viewed at ×4 magnification (wound healing assay) or ×10 magnification (EMT) using an Olympus fluorescence IX71 microscope (Olympus) and images were captured using DPController software (2002 Olympus Optical Co. LTD) and analyzed using Photoshop CS3 (Adobe Systems Inc.). Scans were taken with a 10 μm scale bar.

[1] = test system: CD44^high/CD24^low CSC-like subpopulation of PMA-stimulated MCF-7 cells (MCF-IM model); assay: FACS analysis of CD44high/CD24low CSC-like subpopulation in MCF-IM model; format: cell-based, human; settings: MCF-IM model; for CD44 high CD24 low-CSC-like subpopulation by FACS: bisindolylmaleimide-I 100 nm and 1 μM prior to PMA for 60 hrs
Experimental: Cells from each well/flask were harvested by means of trypsin treatment followed by two washes with PBS. Washed cells then re-suspended in an antibody cocktail consisting anti-CD44-APC, anti-CD24-PE antibodies (details in Table 5) and Hoechst 33258 dye (final dilution of 1:1000) (Invitrogen, Carlsbad, Calif.) in 1% FCS-PBS solution. Cells re-suspended in antibody cocktail were incubated for 20 minutes at 4° C. Cells were next washed twice with PBS and re-suspended in 1% FCS-PBS solution (volume based on cell number) and kept on ice until analyzed by FACS. Forward scatter (FSC) and side scatter parameters were selected with FITC fluorochrome excited by 488 nm argonion laser, PE fluorochrome excited by 488 nm and Hoechst fluorochrome excited by 350 nm helium-cadmium UV laser.
Flow Cytometry data was produced using either BD FACS LSR Flow Cytometer (Becton Dickinson Biosciences) or BD FACS Aria™ II Flow Cytometer (Becton Dickinson Biosciences) and analyzed using the data acquisition software CellQuest Pro (Becton Dickinson Biosciences) and FlowJo (Tree Star Inc., Ashland, Oreg.) software at the MCRF facility, JCSMR, ANU, Canberra, Australia. Single colour controls were used to set compensation parameters. Isotype controls were used for all corresponding primary antibodies in each experiment.
The FACS gating strategy used in this thesis is adopted and modified from the pioneer breast cancer stem cell publications (Al-Hajj et al., 2003) which sorted cells based on the CD44^high and CD24^low expression. […] To confirm that anti-CD44-APC and anti-CD24-PE antibodies were specific, isotype control antibodies were used. The isotype (negative controls) used for anti-CD24-PE was PE Mouse-Anti-human IgG2aK and for anti-CD44-APC was APC-Mouse-Anti-human IgG2bK. First, all the cells were stained with Hoechst 33258 to monitor cell viability. In addition cells were stained with varying concentrations of either APC or PE isotypes controls.
The adherent human mammary adenocarcinoma MCF-7 and MDA-MB-231 cells were cultured in low glucose DMEM (Gibco) and both supplemented with 10% FCS, 2 mM L-glutamine and 0.1% PSN antibiotics. Cells were stimulated with 0.65 ng/ml of phorbol 12-myristate 13-acetate (PMA) (Sigma-Aldrich) or 20 ng/ml of TGF-β (R&D systems) for the times indicated. For Bisindolylmaleimide-I (Calbiochem) or PKC-θ peptide inhibitor (Calbiochem) studies, cells were pre-treated with 1 μM or 30 μM of inhibitor respectively for 1 h prior to stimulation in MCF-7 cells. In case of MDA-MB-231, cells were treated with 4 μM or 30 μM Bisindolylmaleimide-I or PKC-θ peptide inhibitor respectively.
To separate CSC from non-CSC (NCSC), florescence activated cell sorting (FACS) was performed on single-cell suspensions that were stained with anti-CD44-APC (559942, BD Biosciences) and anti-CD24-PE antibodies (555428, BD Biosciences) along with Hoechst 33258 to monitor cell viability. As used throughout this work, CSC are defined by minority CD44^high/CD24^low, whereas NCSC are defined by rest of the cell populations.
The adherent human mammary adenocarcinoma cell lines MCF-7 were cultured in low glucose DMEM (Gibco) and supplemented with 10% FCS, 2 mM L-glutamine, and 0.1% PSN antibiotics. Cells were stimulated with 0.65 ng/ml of phorbol 12-myristate 13-acetate (PMA) (Sigma-Aldrich) for 60 hours. FACS was performed on single-cell suspensions stained with anti-CD44-APC (559942, BD Biosciences) and anti-CD24-PE antibodies (555428, BD Biosciences), along with Hoechst 33258 (561908, BD Biosciences) to monitor cell viability as previously detailed (Zafar et al., Chromatinized PKC-theta directly regulates inducible genes in epithelial to mesenchymal transition and breast cancer stem cells. Molecular and Cellular Biology, 2014, 34:16 2961-2980). […]

[2] = listed as Broad spectrum PKC pathway inhibitor

Row | SMILES | PMA-induced EMT-like morphological changes (MCF-7 cells; pre-incubation with Go6976) | CD44 high CD24 low-CSC-like subpopulation (CSC formation) by FACS ([1]; Go6976 1 μM prior to PMA for 60 hrs) | EMT (morphology) (MCF-7 cells) | EMT (morphology) (MCF-7 cells; [2]) | CD44 high CD24 low-CSC-like subpopulation by FACS [1] | CD44 high CD24 low-CSC-like subpopulation by FACS [1, 2]
1 | Cn1c2ccccc2c2c3c(c4c5ccccc5n(CCC#N)c4c21)CNC3=O [Go6976] | did not prevent PMA-induced EMT-like morphological changes or CSC formation | did not prevent PMA-induced EMT-like morphological changes or CSC formation |  |  |  | 
2 | CN(C)CCCn1cc(C2=C(c3c[nH]c4ccccc34)C(=O)NC2=O)c2ccccc21 [bisindolylmaleimide-I] |  |  | inhibits EMT | inhibition of EMT and CSC formation | only very high concentration of bisindolylmaleimide-I but not Go 6976 inhibits CD44 high CD24 low-CSC-like subpopulation | inhibition of EMT and CSC formation
